Assay results taken from the NIST ThermoML archive (doi:10.1016/j.jct.2016.03.026).

Test: xn = mol fraction of the nth substance listed
Details: Fluid (supercritical or subcritical phases), Vibrating tube method, x1 = 0.97

O=C=O [carbon dioxide] + CO
Details	mass density [kg/m3]
304.21 K, 16700 kPa	863.76
304.21 K, 16725 kPa	864.02
304.21 K, 16750 kPa	864.2
304.21 K, 16775 kPa	864.47
304.21 K, 16800 kPa	864.63
304.21 K, 16825 kPa	864.86
304.21 K, 16850 kPa	865.05
304.21 K, 16875 kPa	865.26
304.21 K, 16900 kPa	865.51
304.21 K, 16925 kPa	865.7
304.21 K, 16950 kPa	865.9
304.21 K, 16975 kPa	866.12
304.21 K, 17000 kPa	866.34
304.21 K, 17025 kPa	866.56
304.21 K, 17050 kPa	866.78
304.21 K, 17075 kPa	866.99
304.21 K, 17100 kPa	867.2
304.21 K, 17125 kPa	867.4
304.21 K, 17150 kPa	867.63
304.21 K, 17175 kPa	867.77
304.21 K, 17200 kPa	867.99
304.21 K, 17225 kPa	868.2
304.21 K, 17250 kPa	868.43
304.21 K, 17275 kPa	868.66
304.21 K, 17300 kPa	868.87
304.21 K, 17325 kPa	869.01
304.21 K, 17350 kPa	869.28
304.21 K, 17375 kPa	869.42
304.21 K, 17400 kPa	869.69
304.21 K, 17425 kPa	869.89
304.21 K, 17450 kPa	870.09
304.21 K, 17475 kPa	870.29
304.21 K, 17500 kPa	870.48
304.21 K, 17525 kPa	870.66
304.21 K, 17550 kPa	870.86
304.21 K, 17575 kPa	871.06
304.21 K, 17600 kPa	871.23
304.21 K, 17625 kPa	871.44
304.21 K, 17650 kPa	871.68
304.21 K, 17675 kPa	871.84
304.21 K, 17700 kPa	872.08
304.21 K, 17725 kPa	872.29
304.21 K, 17750 kPa	872.45
304.21 K, 17775 kPa	872.68
304.21 K, 17800 kPa	872.83
304.21 K, 17825 kPa	873.02
304.21 K, 17850 kPa	873.25
304.21 K, 17875 kPa	873.48
304.21 K, 17900 kPa	873.63
304.21 K, 17925 kPa	873.87
304.21 K, 17950 kPa	874.01
304.21 K, 17975 kPa	874.23
304.21 K, 18000 kPa	874.46
304.21 K, 18025 kPa	874.62
304.21 K, 18050 kPa	874.83
304.21 K, 18075 kPa	875.05
304.21 K, 18100 kPa	875.2
304.21 K, 18125 kPa	875.42
304.21 K, 18150 kPa	875.58
304.21 K, 18175 kPa	875.78
304.21 K, 18200 kPa	876
304.21 K, 18225 kPa	876.22
304.21 K, 18250 kPa	876.35
304.21 K, 18275 kPa	876.56
304.21 K, 18300 kPa	876.78
304.21 K, 18325 kPa	876.99
304.21 K, 18350 kPa	877.14
304.21 K, 18375 kPa	877.36
304.21 K, 18400 kPa	877.5
304.21 K, 18425 kPa	877.73
304.21 K, 18450 kPa	877.88
304.21 K, 18475 kPa	878.11
304.21 K, 18500 kPa	878.3
304.21 K, 18525 kPa	878.46
304.21 K, 18550 kPa	878.68
304.21 K, 18575 kPa	878.87
304.21 K, 18600 kPa	879.03
304.21 K, 18625 kPa	879.24
304.21 K, 18650 kPa	879.38
304.21 K, 18675 kPa	879.61
304.21 K, 18700 kPa	879.76
304.21 K, 18725 kPa	879.99
304.21 K, 18750 kPa	880.19
304.21 K, 18775 kPa	880.38
304.21 K, 18800 kPa	880.58
304.21 K, 18825 kPa	880.78
304.21 K, 18850 kPa	880.89
304.21 K, 18875 kPa	881.09
304.21 K, 18900 kPa	881.28
304.21 K, 18925 kPa	881.49
304.21 K, 18950 kPa	881.68
304.21 K, 18975 kPa	881.88
304.21 K, 19000 kPa	882.06
304.21 K, 19025 kPa	882.19
304.21 K, 19050 kPa	882.43
304.21 K, 19075 kPa	882.62
304.21 K, 19100 kPa	882.73
304.21 K, 19125 kPa	882.92
304.21 K, 19150 kPa	883.11
304.21 K, 19175 kPa	883.3
304.21 K, 19200 kPa	883.48
304.21 K, 19225 kPa	883.65
304.21 K, 19250 kPa	883.86
304.21 K, 19275 kPa	884.07
304.21 K, 19300 kPa	884.25
304.21 K, 19325 kPa	884.43
304.21 K, 19350 kPa	884.6
304.21 K, 19375 kPa	884.78
304.21 K, 19400 kPa	884.95
304.21 K, 19425 kPa	885.12
304.21 K, 19450 kPa	885.28
304.21 K, 19475 kPa	885.46
304.21 K, 19500 kPa	885.62
304.21 K, 19525 kPa	885.78
304.21 K, 19550 kPa	886.04
304.21 K, 19575 kPa	886.21
304.21 K, 19600 kPa	886.37
304.21 K, 19625 kPa	886.54
304.21 K, 19650 kPa	886.76
304.21 K, 19675 kPa	886.92
304.21 K, 19700 kPa	887.09
304.21 K, 19725 kPa	887.24
304.21 K, 19750 kPa	887.4
304.21 K, 19775 kPa	887.64
304.21 K, 19800 kPa	887.8
304.21 K, 19825 kPa	887.96
304.21 K, 19850 kPa	888.12
304.21 K, 19875 kPa	888.28
304.21 K, 19900 kPa	888.48
304.21 K, 19925 kPa	888.67
304.21 K, 19950 kPa	888.82
304.21 K, 19975 kPa	888.98
304.21 K, 20000 kPa	889.2
313.15 K, 8375 kPa	468.68
313.15 K, 8400 kPa	477.47
313.15 K, 8425 kPa	486.09
313.15 K, 8450 kPa	494.72
313.15 K, 8475 kPa	503.03
313.15 K, 8500 kPa	510.78
313.15 K, 8525 kPa	518.43
313.15 K, 8550 kPa	525.63
313.15 K, 8575 kPa	531.85
313.15 K, 8600 kPa	538.44
313.15 K, 8625 kPa	544.56
313.15 K, 8650 kPa	551.14
313.15 K, 8675 kPa	556.46
313.15 K, 8700 kPa	562.19
313.15 K, 8725 kPa	566.94
313.15 K, 8750 kPa	571.39
313.15 K, 8775 kPa	576
313.15 K, 8800 kPa	580.21
313.15 K, 8825 kPa	583.78
313.15 K, 8850 kPa	587.78
313.15 K, 8875 kPa	591.7
313.15 K, 8900 kPa	595.4
313.15 K, 8925 kPa	598.87
313.15 K, 8950 kPa	601.87
313.15 K, 8975 kPa	604.9
313.15 K, 9000 kPa	608.05
313.15 K, 9025 kPa	611
313.15 K, 9050 kPa	613.79
313.15 K, 9075 kPa	616.51
313.15 K, 9100 kPa	619.14
313.15 K, 9125 kPa	621.62
313.15 K, 9150 kPa	624.11
313.15 K, 9175 kPa	626.69
313.15 K, 9200 kPa	629
313.15 K, 9225 kPa	631.2
313.15 K, 9250 kPa	633.38
313.15 K, 9275 kPa	635.44
313.15 K, 9300 kPa	637.48
313.15 K, 9325 kPa	639.32
313.15 K, 9350 kPa	641.4
313.15 K, 9375 kPa	643.26
313.15 K, 9400 kPa	645.2
313.15 K, 9425 kPa	646.98
313.15 K, 9450 kPa	648.9
313.15 K, 9475 kPa	650.62
313.15 K, 9500 kPa	652.27
313.15 K, 9525 kPa	653.94
313.15 K, 9550 kPa	655.55
313.15 K, 9575 kPa	657.12
313.15 K, 9600 kPa	658.64
313.15 K, 9625 kPa	660.18
313.15 K, 9650 kPa	661.7
313.15 K, 9675 kPa	663.21
313.15 K, 9700 kPa	664.7
313.15 K, 9725 kPa	666.14
313.15 K, 9750 kPa	667.47
313.15 K, 9775 kPa	668.89
313.15 K, 9800 kPa	670.26
313.15 K, 9825 kPa	671.58
313.15 K, 9850 kPa	672.87
313.15 K, 9875 kPa	674.13
313.15 K, 9900 kPa	675.44
313.15 K, 9925 kPa	676.66
313.15 K, 9950 kPa	677.96
313.15 K, 9975 kPa	679.1
313.15 K, 10000 kPa	680.33
313.15 K, 10025 kPa	681.48
313.15 K, 10050 kPa	682.54
313.15 K, 10075 kPa	683.7
313.15 K, 10100 kPa	684.8
313.15 K, 10125 kPa	685.84
313.15 K, 10150 kPa	686.83
313.15 K, 10175 kPa	687.88
313.15 K, 10200 kPa	688.8
313.15 K, 10225 kPa	689.94
313.15 K, 10250 kPa	690.95
313.15 K, 10275 kPa	691.93
313.15 K, 10300 kPa	693
313.15 K, 10325 kPa	693.97
313.15 K, 10350 kPa	694.91
313.15 K, 10375 kPa	695.92
313.15 K, 10400 kPa	696.92
313.15 K, 10425 kPa	697.78
313.15 K, 10450 kPa	698.73
313.15 K, 10475 kPa	699.66
313.15 K, 10500 kPa	700.62
313.15 K, 10525 kPa	701.51
313.15 K, 10550 kPa	702.39
313.15 K, 10575 kPa	703.29
313.15 K, 10600 kPa	704.13
313.15 K, 10625 kPa	705.05
313.15 K, 10650 kPa	705.9
313.15 K, 10675 kPa	706.75
313.15 K, 10700 kPa	707.66
313.15 K, 10725 kPa	708.5
313.15 K, 10750 kPa	709.33
313.15 K, 10775 kPa	710.14
313.15 K, 10800 kPa	710.93
313.15 K, 10825 kPa	711.74
313.15 K, 10850 kPa	712.55
313.15 K, 10875 kPa	713.33
313.15 K, 10900 kPa	714.15
313.15 K, 10925 kPa	714.94
313.15 K, 10950 kPa	715.71
313.15 K, 10975 kPa	716.52
313.15 K, 11000 kPa	717.28
313.15 K, 11025 kPa	718.03
313.15 K, 11050 kPa	718.76
313.15 K, 11075 kPa	719.52
313.15 K, 11100 kPa	720.27
313.15 K, 11125 kPa	720.97
